Assay: in vitro
Details: human, hek293t cells
Experimental: Mammalian cytotoxicity measurement was performed using Cell Titer-Glo 2.0 Cell Viability Assay (Promega, G9243) according to the manufacturer protocol. In brief, mammalian cells were seeded into 384-well white plates (Greiner, 781080) and incubated at 37°C for one day. Compounds from the Cys-Library were dispensed into the assay plate using epMotion 96. The plates were then incubated at 37°C for two days. An equal volume of Cell Titer-Glo 2.0 reagent was added into each well of the assay plate using epMotion 96 and incubated at 22°C for 10 min, followed by luminescence measurement using a Cytation 5 plate reader (BioTek).

Row | Structure (SMILES) | viability at 48 h, 25 µM [%]
1 | N#CC(=Cc1ccc(OC(F)F)cc1)C(=O)Nc1ccccc1 [9-G15, 2-cyano-3-[4-(difluoromethoxy)phenyl]-N-phenylprop-2-enamide] | 139
2 | CC1CC1c1ccc(C=C(C#N)C(=O)Nc2ccc(C(=O)O)cc2)o1 (stereo not shown) [9-G16, 4-{2-cyano-3-[5-(2-methylcyclopropyl)furan-2-yl]prop-2-enamido}benzoic acid] | 133
3 | Cc1cccc(C)c1NC(=O)C(C#N)=Cc1ccc(C(=O)O)cc1 [9-G17, 4-{2-cyano-2-[(2,6-dimethylphenyl)carbamoyl]eth-1-en-1-yl}benzoic acid] | 111
4 | N#CC(=Cc1ccc(-c2cccc([N+](=O)[O-])c2)s1)C(=O)NC1CC1 [9-G18, 2-cyano-N-cyclopropyl-3-[5-(3-nitrophenyl)thiophen-2-yl]prop-2-enamide] | 103
5 | Cc1ccc(NC(=O)C(C#N)=Cc2ccc(OC(F)F)cc2)c(C)c1 [9-G19, 2-cyano-3-[4-(difluoromethoxy)phenyl]-N-(2,4-dimethylphenyl)prop-2-enamide] | 90.4
6 | COc1cc(C=C(C#N)C(=O)Nc2cccc(Cl)c2)cc(O)c1O [9-G20, N-(3-chlorophenyl)-2-cyano-3-(3,4-dihydroxy-5-methoxyphenyl)prop-2-enamide] | 72.4
7 | Cn1c(CNC=C(C#N)C(=O)Nc2ccccc2)cc(=O)n(C)c1=O [9-G21, 2-cyano-3-{[(1,3-dimethyl-2,6-dioxo-1,2,3,6-tetrahydropyrimidin-4-yl)methyl]amino}-N-phenylprop-2-enamide] | 115
8 | N#CC(=Cc1ccc(O)cc1)C(=O)Nc1ccc(Cl)cc1Cl [9-G22, 2-cyano-N-(2,4-dichlorophenyl)-3-(4-hydroxyphenyl)prop-2-enamide] | 82.3
9 | Cc1ccc(NC(=O)C(C#N)=Cc2ccc3c(c2)OCCO3)c(C)c1 [9-H03, 2-cyano-3-(2,3-dihydro-1,4-benzodioxin-6-yl)-N-(2,4-dimethylphenyl)prop-2-enamide] | 107
10 | CC(NC(=O)C(C#N)=Cc1ccco1)c1cccc(-n2ccnc2)c1 (stereo not shown) [9-H04, 2-cyano-3-(furan-2-yl)-N-{1-[3-(1H-imidazol-1-yl)phenyl]ethyl}prop-2-enamide] | 127
11 | C=CCNC(=O)C(C#N)=Cc1ccccc1OC [9-H05, 2-cyano-3-(2-methoxyphenyl)-N-(prop-2-en-1-yl)prop-2-enamide] | 114
12 | Cc1ncsc1C=C(C#N)C(=O)NCCc1ccccc1 [9-H06, 2-cyano-3-(4-methyl-1,3-thiazol-5-yl)-N-(2-phenylethyl)prop-2-enamide] | 99.1
13 | C=CCNC(=O)C(C#N)=Cc1cc(F)ccc1F [9-H07, 2-cyano-3-(2,5-difluorophenyl)-N-(prop-2-en-1-yl)prop-2-enamide] | 111
14 | COCCNC(=O)C(C#N)=Cc1cccc(O)c1 [9-H08, 2-cyano-3-(3-hydroxyphenyl)-N-(2-methoxyethyl)prop-2-enamide] | 121
15 | COCC(C)NC(=O)C(C#N)=Cc1ccc(F)c(C)c1 (stereo not shown) [9-H09, 2-cyano-3-(4-fluoro-3-methylphenyl)-N-(1-methoxypropan-2-yl)prop-2-enamide] | 108
16 | N#CC(=Cc1ccc(-c2ccccc2F)o1)C(=O)NCc1ccccc1 [9-H10, N-benzyl-2-cyano-3-[5-(2-fluorophenyl)furan-2-yl]prop-2-enamide] | 92.7
17 | CCCCNC(=O)C(C#N)=Cc1cccc(Cl)c1Cl [9-H11, N-butyl-2-cyano-3-(2,3-dichlorophenyl)prop-2-enamide] | 24.1
18 | Cc1nccn1Cc1ccc(NC(=O)C(C#N)=Cc2ccco2)cc1 [9-H12, 2-cyano-3-(furan-2-yl)-N-{4-[(2-methyl-1H-imidazol-1-yl)methyl]phenyl}prop-2-enamide] | 93
19 | CCCCNC(=O)C(C#N)=Cc1ccc(Cl)cc1 [9-H13, N-butyl-3-(4-chlorophenyl)-2-cyanoprop-2-enamide] | 72.9
